Test results taken from US9175024B2, “Platinum compound having amino or alkylamino-containing succinic acid derivatives as leaving group, preparation method thereof, and use thereof” (BEIJING FSWELCOME TECHNOLOGY DEVELOPMENT CO., LTD., priority 2011, dated 2015).
Several values for one entry are separate records, joined by “and”; a condition that tells them apart may be missing. Equal entries are not always repeated.

How the values were obtained:
Lung cancer H292 = assay: MTT cytotoxicity, lung cancer H292; format: cell-based; details: n = 6, Lung cancer H292
Protocol: (§1) Several kinds of tumor cells in exponential growth phase were prepared into single cell suspension, inoculated on 96 pore plat at the density of 4×10^4/hole, cultivated for 24 hours to enable to adhere to wall with 1640 culture medium containing 10% fetal calf serum (complete medium) at 37° C.; the final culture volume was 100 μl. Cell morphology was observed after culture for 24 hours.

colon cancer SW480 [1] = assay: In vivo antitumor activity, colon cancer SW480 in nude mice; details: SW480 in male nude mice, once a week, 4 times, tumor weighed after 4 weeks
Excerpt: The calculation formula of tumor inhabitation rate is: […]

Lewis lung cancer = assay: MTT cytotoxicity, Lewis lung cancer; format: cell-based; details: n = 6, Lewis lung cancer
Protocol: as §1

[2] = test system: Pulmonary epithelial cell BEAS-2B; assay: MTT cytotoxicity, pulmonary epithelial cell BEAS-2B; format: cell-based; details: n = 6, Pulmonary epithelial cell BEAS-2B
Protocol: as §1

Colon cancer SW480 [3] = assay: MTT cytotoxicity, colon cancer SW480; format: cell-based; details: n = 6, Colon cancer SW480
Protocol: as §1

normal mice = assay: Acute toxic effect of platinum complex on normal mice (LD50, single intravenous administration); format: in vivo, Kunming mice; details: single intravenous administration in 5% glucose solution, 14 days observation, Bliss method
Protocol: (§2) Kunming mice at 4˜6 weeks old and at the weight of 18˜22 g were taken, 50% male and 50% female. Embodiment platinum compound was dissolved with 5% glucose solution. […] Mortality and toxicity were observed after administration, totally observing 14 days, LD50 value was calculated with Bliss method according to mortality.

[4] = test system: Breast cancer MCF-7 Cisplatin resistance strain; assay: MTT cytotoxicity, breast cancer MCF-7 cisplatin resistance strain; format: cell-based; details: n = 6, Breast cancer MCF-7 Cisplatin resistance strain
Protocol: as §1

Lung cancer A549 = assay: MTT cytotoxicity, lung cancer A549; format: cell-based; details: n = 6, Lung cancer A549
Protocol: as §1

Gastric cancer MGC803 = assay: MTT cytotoxicity, gastric cancer MGC803; format: cell-based; details: n = 6, Gastric cancer MGC803
Protocol: as §1

Esophagus cancer ECA109 = assay: MTT cytotoxicity, esophagus cancer ECA109; format: cell-based; details: n = 6, Esophagus cancer ECA109
Protocol: as §1

Breast cancer MCF-7 [5] = assay: MTT cytotoxicity, breast cancer MCF-7; format: cell-based; details: n = 6, Breast cancer MCF-7
Protocol: as §1

Testis cell ST = assay: MTT cytotoxicity, testis cell ST; format: cell-based; details: n = 6, Testis cell ST
Protocol: as §1

physchem = details: water
[6] = Acute toxic effect of platinum complex on normal mice (LD50, single intravenous administration); format: in vivo, Kunming mice; details: both sexes, Kunming, mouse, in vivo; single intravenous administration in 5% glucose solution, 14 days observation, Bliss method
Protocol: as §2

breast cancer MCF-7 [7] = assay: In vivo antitumor activity, breast cancer MCF-7 in nude mice; details: MCF-7 in female nude mice, 30 mg (platinum)/kg, once a week, 4 times, tumor weighed 4 weeks later

SMILES | IC50 (Lung cancer H292) | Tumor inhibition rate (x ± SD) (colon cancer SW480 [1]; 10 mg (platinum)/kg) [%] | IC50 (Lewis lung cancer) [µM] | IC50 [2] [µM] | IC50 (Colon cancer SW480 [3]) [µM] | LD50 value (normal mice) [mmol/kg] | solubility (physchem) [mg/mL] | LD50 at 14 days [6] [µmol/kg] | also measured
CCN(CC)CCC(CC(=O)[O-])C(=O)[O-].NC1CCCCC1N.[Pt+2] (racemic) [Compound 10, [2-(2-diethyl amino ethyl)-succinato].[Cis-(1,2-trans-cyclohexyldiamine)]platinum (II)] | 24 µM | 55.1 ± 9.07 | 28 | 25 | 5 | 0.595 |  |  | 
CC(=O)NC(CC(=O)[O-])C(=O)[O-].NC1CCCCC1N.[Pt+2] (centres unmarked) [Contrast Embodiment 1, reference compound] | 253 µM and 353 µM and 365 µM |  | 545 | 433 | 615 | 0.092 |  |  | IC50 [4]: 425 µM; IC50 (Lung cancer A549): 436 µM; IC50 (Gastric cancer MGC803): 525 µM; IC50 (Esophagus cancer ECA109): 467 µM; IC50 (Breast cancer MCF-7 [5]): 632 µM; IC50 (Testis cell ST): 239 µM
CCNCCC1CC(=O)[O][Pt]2([NH]C3CCCCC3[NH]2)[O]C1=O (stereo not drawn) [Compound 12, [2-(2-ethylamino ethyl)-succinato].[Cis-(1,2-trans-cyclohexyldiamine)]platinum (II)] | 61 µM | 46.8 ± 9.17 | 69 | 57 | 72 | 0.602 |  |  | 
NC1CCCCC1N.O=C([O-])CC(CCCN1CCCCC1)C(=O)[O-].[Pt+2] (racemic) [Compound 13, [2-(3-(1-piperidyl)propyl)-succinato].[Cis-(1,2-trans-cyclohexyldiamine)]platinum (II)] | 57 µM | 56.3 ± 6.81 | 32 | 12 | 95 | 0.542 |  |  | 
CN(C)CCCC1CC(=O)[O][Pt]2([NH]C3CCCCC3[NH]2)[O]C1=O (stereo not drawn) [Compound 11, [2-(3-dimethylamino propyl)-succinato].[Cis-(1,2-trans-cyclohexyldiamine)]platinum (II)] | 13 µM | 46.3 ± 9.88 | 51 | 45 | 22 | 0.571 |  |  | 
NCCC(CC(=O)[O-])C(=O)[O-].N[C@@H]1CCCC[C@H]1N.[Pt+2] (relative stereo) [Compound 9, [2-(2-aminoethyl)-succinato].[Cis-(1,2-trans-cyclohexyldiamine)]platinum (II)] | 26 µM | 44.8 ± 10.8 | 84 | 17 | 62 | 0.429 |  |  | 
CNCCC1CC(=O)[O][Pt]([NH2])([NH2])[O]C1=O (stereo not drawn) [Compound 1, [2-(2-methylaminoethyl)-succinato].[Cis-diamine]platinum (II)] |  |  |  |  |  |  | 208 | 523 | 
NCCCC1CC(=O)[O][Pt]([NH2])([NH2])[O]C1=O (stereo not drawn) [Compound 4, [2-(3-amino propyl)-succinato].[Cis-diamine]platinum (II)] |  |  |  |  |  |  | 155 | 556 | 
CN(C)CCCC1CC(=O)[O][Pt]([NH2])([NH2])[O]C1=O (stereo not drawn) [Compound 3, [2-(3-dimethylamino propyl)-succinato].[Cis-diamine]platinum (II)] |  |  |  |  |  |  | 150 | 521 | 
CN(C)CCC1CC(=O)[O][Pt]([NH2])([NH2])[O]C1=O (stereo not drawn) [Compound 2, [2-(2-dimethylaminoethyl)-succinato].[Cis-diamine]platinum (II)] |  |  |  |  |  |  | 176 | 511 | 
CCN(CC)CCC1CC(=O)[O][Pt]([NH2])([NH2])[O]C1=O (stereo not drawn) [Compound 5, [2-(2-diethylaminoethyl)-succinato].[Cis-diamine]platinum (II)] |  |  |  |  |  |  | 166 | 652 | 
CCCN(CCC)CCCC1CC(=O)[O][Pt]([NH2])([NH2])[O]C1=O (stereo not drawn) [Compound 6, [2-(3-di-n-propylamino propyl)-succinato].[Cis-diamine]platinum (II)] |  |  |  |  |  |  | 130 | 449 | 
[NH2][Pt]1([NH2])[O]C(=O)CC(CCCN2CCCC2)C(=O)[O]1 (stereo not drawn) [Compound 8, [2-(3-(1-pyrrolidyl)-propyl)-succinato].[Cis-diamine]platinum (II)] |  |  |  |  |  |  | 135 | 605 | 
NC(CC(=O)[O-])C(=O)[O-].NC1CCCCC1N.[Pt+2] (racemic) [ADP, [DL-2-amino-succinato].[trans-hexamethylenediamine]platinum (II), reference compound] | 61 µM |  | 162 | 107 | 98 | 0.332 |  |  | IC50 [4]: 156 µM; IC50 (Lung cancer A549): 145 µM; Tumor inhibition rate (x ± SD) (colon cancer SW480 [1]; 30 mg (platinum)/kg): 45.3 ± 11.21%; IC50 (Gastric cancer MGC803): 160 µM; IC50 (Esophagus cancer ECA109): 98 µM and 163 µM; Tumor inhibition rate (x ± SD) (breast cancer MCF-7 [7]): 68.3 ± 10.27 9%; IC50 (Breast cancer MCF-7 [5]): 73 µM; IC50 (Testis cell ST): 187 µM
